# Assay results taken from publication PMC6271639, “Lycodine-Type Alkaloids from Lycopodiastrum casuarinoides and Their Acetylcholinesterase Inhibitory Activity” (Molecules, 2014).
# Experiments:
# [1] = molecular target: T1, AChE (EC3.1.1.7, Sigma product no. C2888) (Electrophorus electricus, UniProt O42275); test: AChE inhibition by modified Ellman's method in 96-well microplates; type: biochemical; conditions: for AChE inhibitory activity in words: qualitative statement
# T1 construct: purchased Sigma (St. Louis, MO, USA) C2888
# T1 sequence (O42275 24-633): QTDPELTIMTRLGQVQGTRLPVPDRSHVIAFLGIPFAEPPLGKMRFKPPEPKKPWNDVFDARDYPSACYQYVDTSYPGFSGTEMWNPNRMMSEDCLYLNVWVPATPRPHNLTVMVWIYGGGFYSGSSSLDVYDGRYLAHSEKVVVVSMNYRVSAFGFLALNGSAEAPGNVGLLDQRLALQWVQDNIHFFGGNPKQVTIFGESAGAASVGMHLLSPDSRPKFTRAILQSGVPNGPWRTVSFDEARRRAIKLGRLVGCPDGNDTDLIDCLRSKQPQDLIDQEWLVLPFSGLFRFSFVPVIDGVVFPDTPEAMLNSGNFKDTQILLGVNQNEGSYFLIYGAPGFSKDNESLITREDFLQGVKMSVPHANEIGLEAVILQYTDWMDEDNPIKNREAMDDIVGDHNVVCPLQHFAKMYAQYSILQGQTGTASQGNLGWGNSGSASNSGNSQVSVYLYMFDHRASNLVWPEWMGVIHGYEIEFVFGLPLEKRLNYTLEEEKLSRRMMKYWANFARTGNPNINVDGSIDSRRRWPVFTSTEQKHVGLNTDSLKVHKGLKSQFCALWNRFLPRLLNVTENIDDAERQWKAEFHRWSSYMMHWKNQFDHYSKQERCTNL
# Protocol: The isolated lycodine-type alkaloids 1–14 were evaluated for their AChE inhibiting activity by Ellman’s method in 96-well microplates.
# AChE (EC3.1.1.7, Sigma product no. C2888), acetylthiocholine iodide (ATCI), 5,5'-dithiobis [2-nitrobenzoic acid] (DTNB) and huperzine A (purity 98%) were purchased from Sigma (St. Louis, MO, USA).
# Briefly, 0.1 M sodium phosphate buffer (140 µL, pH = 8.0), sample solution (20 µL) and enzyme solution (15 µL) were mixed and incubated at 4 °C for 20 min. Ten µL of 0.01 M DTNB was added and the reaction was then started by adding 0.075 M ATCI (10 µL). […] Blanks were set up by adding 20 µL buffer solutions instead of 20 µL sample solution. Experiment control was set up by adding 15 µL buffer solutions instead of 15 µL enzyme solution in order to deduct the sample background. All reactions were carried out thrice.
# AChE = conditions: previously reported ref 8, 13, 21; cited from earlier work
Compound,AChE inhibitory activity in words [1],IC50 [1],IC50 (AChE)
"C=CC1C2C=C(C)CC1(N(C)C)c1ccc(=O)[nH]c1C2 (stereo not drawn) [Compound 5, huperzinine]",very weak activity,–,–
"C=CC1C2C=C(C)CC1(NC)c1ccc(=O)[nH]c1C2 (stereo not drawn) [Compound 7, N-demethylhuperzinine]",–,1.9 ± 0.2 µM,–
"CC1=C[C@H]2Cc3[nH]c(=O)ccc3[C@]3(C1)NCCC[C@H]23 [Compound 9, huperzine B]",significant inhibitory activity,20.2 ± 1.3 µM,19.3 µM
"C=CC1C2C=C(CO)CC1(NC)c1ccc(=O)[nH]c1C2 (stereo not drawn) [Compound 10, casuarinine E]",–,> 250 µM,–
"C=C[C@@H]1[C@H]2C=C(CO)C[C@]1(N)c1ccc(=O)[nH]c1C2 [Compound 13, lycoparin C]",significant inhibitory activity,23.9 ± 2.2 µM,25 µM
